Test results published in PMC11603075 (Communications Biology, 2024).

How the values were obtained:
KDM5B = experiment: MALDI–TOF MS demethylation/+16 Da assay, KDM5B; type: biochemical, human; details: 90 min
Excerpt: (§1) Fig. 2 Histone H2a fragments are KDM5 and KDM4 substrates. […] See Supplementary Table 6 and Supplementary Fig. 2 for assay conditions and quantification, respectively. […] 0-minute MS spectrum in black, 60/90-minute spectrum in red.
(§2) MS-based screening assays with peptides and calf thymus histones were as reported; see Supplementary Table 6 for conditions. Time course assays were based on reported procedures. In brief, equal volumes of the enzyme and substrate solutions were combined to initiate the reaction; 10 µL of 2% (v/v) formic acid (HCOOH) in ddH2O or 100% methanol was added to 10 µL of the reaction mixture to quench reactions at different time points. Unless otherwise stated, time course assays were carried out in triplicate. In some cases, LC–MS was used instead of MALDI-TOF MS to avoid a MALDI matrix induced artefact with the hydroxylated product (Supplementary Fig. 16). […]
(§3) Supplementary Figure 2 Histone H2a peptide fragments are substrates of KDM4s and KDM5s.
(§4) 2 for representative corresponding MALDI–TOF MS traces. Bar graphs comparing % product format ion (+16 Da and demethylation) of H2a(1–20)R3me2a by (a) K DM5 A–D (after 90 minutes) and (b) KDM4A–E ( a ft er 60 minutes), analysed by MALDI– TOF MS. n = (a) 2, (b) 3 (independent assays). See Supplementary Table 6 for assay condit ions. See Figure S13 A 1 for a positive control.
(§5) (also on this page, place not known: formation KDM5A–D (after MALDI–TOF conditions. Figure S13A1 KDM4A KDM4B KDM4C KDM4D KDM4E 80% product formation KDM5A KDM5B KDM5C KDM5D % product formation) […]
(§6) [ E nz ym e] [Peptide] [2OG] [Ascorbate] [(NH4)2F e(S O4)2] [TCEP] Buffer pH7.5 Enzyme Cognate substrate (mM) (mM) (mM) (mM) (mM) (mM) [HE PE S]
(§7) Supplementary Table 6 Summary of MS assay conditions for substrate screening. These conditions enabled efficient turnover of established substrates. Reactions were carried out at 37 °C unless otherwise st ated. […]

KDM5A = experiment: MALDI–TOF MS demethylation/+16 Da assay, KDM5A; type: biochemical, human; details: 90 min
Excerpt: as §1, §2, §3, §4, §5, §6, §7

Substance: Ac - SGR [ me 2a ] GKQ GGKAR AKAKT R SSR [H2a(1–20)R3me2a, H2a(1–20)R3me2a without a biotin tag]
- +16 Da (% product formation) (KDM5B; replicate 1): 0%
- demethylation (% product formation) (KDM5B; replicate 1): 23.54%
- +16 Da (% product formation) (KDM5B; replicate 2): 0%
- demethylation (% product formation) (KDM5B; replicate 2): 18.654%
- +16 Da (% product formation) (KDM5A; replicate 1): 0%
- demethylation (% product formation) (KDM5A; replicate 1): 52.427%
- +16 Da (% product formation) (KDM5A; replicate 2): 0%
- demethylation (% product formation) (KDM5A; replicate 2): 53.348%
